Some results are limits rather than exact numbers.

Data set [1] concerns release of histamine induced by passive peritoneal anaphylaxis (PPA) reaction. Kind of data set: Passive Peritoneal Anaphylaxis (PPA) test: inhibition of histamine release. It is filed as in vivo, Sprague-Dawley male rats. The conditions noted are these: ip, 5 min; rat PPA; 1 mg/kg intraperitoneally 30 seconds before egg albumin. Here is the method:
(§1) 1 mg of egg albumin dissolved in 0.2 ml of saline was intramuscularly administered to each of Sprague-Dawley male rats weighing 300 to 350 g (Charles River Japan Inc.), and then 1 ml of a suspension of sterilized Bordetella pertussis (2×10^10 cells) in saline was administered intraperitoneally to the rats. After 14 days, blood was drawn from the rats to obtain an antiserum.
(§2) The test was conducted according to the method of Orange et al [Orange, R. P., Stechschulte, D. J., Austen, K. F., J. Immunol., 105, pp1087-1095 (1970)]. Sprague-Dawley male rats weighing 250 to 400 g (5 rats per group) were passively sensitized by administering 5 ml of 5-fold dilution antiserum (prepared by diluting the above antiserum with saline). 2 hours later, 5 ml of an egg albumin solution prepared by dissolving 2 mg of egg albumin in phosphate buffered saline containing 0.9 mM of calcium chloride was administered intraperitoneally to the rats. After 5 minutes, the rats were sacrificed by decapitation, and peritoneal fluid was pooled and centrifuged at 300×G at 4° C. for 10 minutes. Then, amounts of SRS-A and histamine in the supernatant were determined.
The quantitative determination of histamine was carried out according to the method of Shore et al [Shore, P. A., Bunkhalter, A. H., Cohn, V. H., J. Pharmacol. Exp. Ther., 127, pp182-186 (1959)], and the total released amount of histamine per rat (μg/rat) was calculated.
(§3) In this test, the test compound of this invention was administered as follows. 2 mg of a test compound was dissolved in 10 ml of phosphate buffered saline containing 0.9 mM of calcium chloride, an equimolar amount of sodium hydroxide to test compound, 2% of dimethyl sulfoxide and 2% of ethanol, and the solution was administered intraperitoneally to the rats at a dose of 1 mg/kg 30 seconds before the injection of egg albumin for inducing PPA. For a control group, the same solution without test compound and sodium hydroxide was administered.
(§4) The inhibitory activity on release of histamine and SRS-A by the PPA reaction in the treated group was calculated by the following formula: [formula] wherein: a represents a mean value of released amount in the control group.
(§5) b represents a mean value of released amount in the treated group.
(§6) c represents a mean value of spontaneously released amount.

Data set [2] concerns passive cutaneous anaphylaxis (PCA) reaction. Kind of data set: Passive cutaneous anaphylaxis (PCA) test. It is filed as in vivo, Sprague-Dowley male rats. The conditions noted are these: 0.5 h; rat PCA; 20 mg/kg in 0.5% CMC, oral, 30 minutes before antigen challenge. Here is the method:
as §1
In this test, the antiserum described in Test Example 1 was used after it was diluted with saline so as to provide a blue spot having a diameter of about 10 mm in the following control group.
Sprague-Dowley male rats weighing about 180 g (5 rats per group) were sensitized by injecting 0.05 ml of the diluted antiserum into the shaved dorsal skin. 48 hours later, the animals were challenged with 1 ml of saline containing 5 mg of egg albumin and 5 mg of Evans blue dye administered via a tail vein. 30 minutes later, the rats were sacrificed by decapitation. The dorsal skin was removed, and the long and short axis of the each wheal was measured.
In this test, the test compound was administered as follows. 20 mg of a test compound was suspended in a 0.5% CMC aqueous solution, and the suspension was administered to each of the rats in an amount of 20 mg/kg 30 minutes before the antigen challenge. For a control group, only a 0.5% CMC solution was administered.
The inhibitory activity on the PCA reaction in the treated group was calculated by the following formula: [formula] wherein: a represents a mean value of blue spot area in the control group.
b represents a mean value of blue spot area in the treated group.

Data set [3] can be described thus: Acute oral toxicity (LD50) in rats. The conditions noted are these: rat, in vivo, oral administration.
Data set [4] concerns release of SRS-A induced by passive peritoneal anaphylaxis (PPA) reaction. Kind of data set: Passive Peritoneal Anaphylaxis (PPA) test: inhibition of SRS-A release. It is filed as in vivo, Sprague-Dawley male rats. As to conditions: ip, 5 min; rat PPA; 1 mg/kg intraperitoneally 30 seconds before egg albumin. Here is the method: as §1, §2
The quantitative determination of SRS-A was carried out according to the method of Stechschulte et al [Stechschulte, D. J., Auste, K. F., Bloch, K. J., J. Exp. Med., 125, pp127-147 (1967)] using a guinea pig ileum specimen in the presence of mepyramine and atropine. The amount of SRS-A was expressed in terms of unit, i.e., one unit of SRS-A activity was defined as the concentration required to produce a contraction of guinea pig ileum equal in amplitude to that produced by 5 ng of histamine, and the total released amount of SRS-A per rat (unit/rat) was calculated.
as §3, §4, §5, §6

In general, inhibition in vivo refers to the relative decrease from the control value, in per cent. The low end stands for little suppression, the high end for strong suppression. For orientation: LD50 means the dose at which mortality reaches 50%. The low end stands for a more toxic substance, the high end for a less toxic substance. Consider `O=c1c2[nH]nnc2nc2sc(Cc3ccccc3)nn12` [Example 42], for which the inhibition in vivo at 1 mg/kg turned out to be 99% in data set [1] and 54% in data set [4]. In addition, at 20 mg/kg the inhibition in vivo in data set [2] was 48%. The compound also showed a 50% lethal dose (LD50) in data set [3] of over 2000 mg/kg.
Taken in the same sequence, the figures for `O=c1c2[nH]nnc2nc2sc(-c3cccs3)nn12` [Example 23] were 84%, 51%, 31% and over 2000 mg/kg.
In the case of `O=c1c2[nH]nnc2nc2sc(C=Cc3ccccc3)nn12` [Example 62], the inhibition in vivo at 1 mg/kg in data set [1] is 94%; in data set [4] it was 55%.
In data set [2], `O=c1c2[nH]nnc2nc2sc(-c3ccc(Cl)o3)nn12` [Example 21] registered an inhibition in vivo at 20 mg/kg of 35%. Further, the LD50 in data set [3] is over 2000 mg/kg.
In data set [3], `Cc1ccccc1CCc1nn2c(=O)c3[nH]nnc3nc2s1` [Example 48] yielded an LD50 of over 2000 mg/kg.
In the case of `O=c1c2[nH]nnc2nc2sc(-c3ccc(C4CCCCC4)cc3)cn12` [Example 7], testing at 20 mg/kg in data set [2] gave an inhibition in vivo of 40%.
Take `CC(C)c1ccc(-c2nn3c(=O)c4[nH]nnc4nc3s2)cc1` [Example 2]: the values for the inhibition in vivo at 1 mg/kg in data set [1] and in data set [4] were 85% and 52%, respectively.
`CC(C)(C)c1cccc(-c2nn3c(=O)c4[nH]nnc4nc3s2)c1` [Example 82]: the figures for the inhibition in vivo at 1 mg/kg in data set [1] and in data set [4] were 82% and 52%, respectively.
`CCc1sc(-c2nn3c(=O)c4[nH]nnc4nc3s2)cc1C` [Example 31]: the inhibition in vivo at 20 mg/kg in data set [2] is 32%.
As to `COc1ccc(Cc2nn3c(=O)c4[nH]nnc4nc3s2)cc1` [Example 44], the inhibition in vivo at 1 mg/kg turned out to be 81% in data set [1] and 70% in data set [4].
`O=c1c2[nH]nnc2nc2sc(-c3ccccc3)cn12` [Example 8]: the inhibition in vivo at 1 mg/kg amounted to 83% in data set [1] and 37% in data set [4].
For `Cc1ccc(-c2nn3c(=O)c4[nH]nnc4nc3s2)cc1` [Example 80, 6-(4-Methylphenyl)-[1,3,4]thiadiazolo[3,2-a][1,2,3]triazolo[4,5-d]pyrimidin-9(1H)-one monohydrate], the values for the inhibition in vivo at 1 mg/kg in data set [1] and in data set [4] were 91% and 42%, respectively. In data set [2], this compound gave an inhibition in vivo at 20 mg/kg of 31%.
Turning to `O=c1c2[nH]nnc2nc2sc(-c3cc4c(s3)CCCC4)nn12` [Example 35], the inhibition in vivo at 1 mg/kg came out at 88% in data set [1] and 45% in data set [4]. Moreover, the inhibition in vivo at 20 mg/kg in data set [2] was determined as 45%.
With `O=c1c2[nH]nnc2nc2sc(-c3cc4c(s3)CCC4)nn12` [Example 33], the inhibition in vivo at 1 mg/kg in data set [1] is 82%; in data set [4] it was 70%. 20 mg/kg produced 47% inhibition in vivo in data set [2].
Regarding `O=c1c2[nH]nnc2nc2sc(CC(c3ccccc3)c3ccccc3)nn12` [Example 57], the inhibition in vivo at 1 mg/kg in data set [1] worked out at 86%; in data set [4], 61%.
As for `CC(C)(C)c1cc(-c2nn3c(=O)c4[nH]nnc4nc3s2)cs1` [Example 29], the inhibition in vivo at 20 mg/kg in data set [2] is 39%.
For the compound `O=c1c2[nH]nnc2nc2sc(-c3ccccc3)nn12` [Example 47], 20 mg/kg produced 38% inhibition in vivo in data set [2]. Moreover, the LD50 in data set [3] was over 2000 mg/kg.
`CC(C)(C)c1ccc(-c2cn3c(=O)c4[nH]nnc4nc3s2)cc1` [Example 6] returned an inhibition in vivo at 20 mg/kg in data set [2] of 36%.
`Cc1cccc(CCc2nn3c(=O)c4[nH]nnc4nc3s2)c1` [Example 49] returned an LD50 in data set [3] of over 2000 mg/kg.
In data set [2], `O=c1c2[nH]nnc2nc2sc(Cc3ccc(F)cc3)nn12` [Example 45] came in with an inhibition in vivo at 20 mg/kg of 57%.
The compound `O=c1c2[nH]nnc2nc2sc(-c3cccc(F)c3)nn12` [Example 13] gave an inhibition in vivo at 20 mg/kg in data set [2] of 34%.
In data set [2], `O=c1c2[nH]nnc2nc2sc(C3COc4ccccc4C3)nn12` (centres unmarked) [Example 39] had an inhibition in vivo at 20 mg/kg of 38%.
With `CCc1ccc(-c2nn3c(=O)c4[nH]nnc4nc3s2)s1` [Example 27], the inhibition in vivo at 1 mg/kg in data set [1] was determined as 81%; in data set [4], 63%.
As for `CC1CCc2sc(-c3nn4c(=O)c5[nH]nnc5nc4s3)cc2C1` (centres unmarked) [Example 36], the inhibition in vivo at 1 mg/kg in data set [1] is 83%; in data set [4], 41%. In addition, the inhibition in vivo at 20 mg/kg in data set [2] is 40%.
In the case of `CC(C)(C)c1ccc(-c2nn3c(=O)c4[nH]nnc4nc3s2)s1` [Example 28], the inhibition in vivo at 20 mg/kg in data set [2] stood at 34%.
`O=c1c2[nH]nnc2nc2sc(C3COc4ccccc4O3)nn12` (centres unmarked) [Example 41]: the inhibition in vivo at 1 mg/kg was determined as 91% in data set [1] and 62% in data set [4].
The matching figures for `O=c1c2[nH]nnc2nc2sc(COc3ccc(F)cc3)nn12` [Example 66]: 89% and 47%.
Compound `CC(C)(C)c1ccc(OCCc2nn3c(=O)c4[nH]nnc4nc3s2)cc1` [Example 69] had an inhibition in vivo at 20 mg/kg in data set [2] of 34%.
On the same count and under the same terms, under `O=c1c2[nH]nnc2nc2sc(-c3ccsc3)nn12` [Example 24] stands 45%.
Compound `Cc1ccc(CCc2nn3c(=O)c4[nH]nnc4nc3s2)cc1` [Example 50] showed an LD50 in data set [3] of over 2000 mg/kg.
`Cc1ccc(-c2nn3c(=O)c4[nH]nnc4nc3s2)o1` [Example 18] returned an LD50 in data set [3] of over 2000 mg/kg.
On to `COc1cccc(-c2nn3c(=O)c4[nH]nnc4nc3s2)c1OC` [Example 11], for which the inhibition in vivo at 1 mg/kg stood at 89% in data set [1] and 66% in data set [4]. The compound also showed an inhibition in vivo at 20 mg/kg in data set [2] of 32%.
Turning to `CC(C)(C)c1ccc(-c2nn3c(=O)c4[nH]nnc4nc3s2)o1` [Example 20], the LD50 in data set [3] was over 2000 mg/kg.
With `O=c1c2[nH]nnc2nc2sc(-c3ccc4c(c3)CCCC4)nn12` [Example 83], at 20 mg/kg the inhibition in vivo in data set [2] was 44%.
In data set [3], `O=c1c2[nH]nnc2nc2sc(CCc3ccc(Cl)cc3)nn12` [Example 55] showed an LD50 of over 2000 mg/kg.
In the case of `O=c1c2[nH]nnc2nc2sc(-c3ccc(Cl)s3)nn12` [Example 32], the inhibition in vivo at 1 mg/kg amounted to 87% in data set [1] and 63% in data set [4]. Further, the inhibition in vivo at 20 mg/kg in data set [2] came to 35%.
As for `O=c1c2[nH]nnc2nc2sc(CCc3cccc(Cl)c3)nn12` [Example 54], the LD50 in data set [3] is over 2000 mg/kg.
Consider `COc1ccc(-c2nn3c(=O)c4[nH]nnc4nc3s2)cc1` [Example 3], for which the inhibition in vivo at 1 mg/kg in data set [1] was 93%; in data set [4], 42%.
With `O=c1c2[nH]nnc2nc2sc(CCc3ccc(F)cc3)nn12` [Example 53], the LD50 in data set [3] is over 2000 mg/kg.
As for `COc1ccc(-c2cn3c(=O)c4[nH]nnc4nc3s2)cc1Cl` [Example 73], 20 mg/kg produced 48% inhibition in vivo in data set [2].
Take `CC(C)(C)c1ccc(Cc2nn3c(=O)c4[nH]nnc4nc3s2)cc1` [Example 43]: the inhibition in vivo at 1 mg/kg in data set [1] stood at 75%; in data set [4], 59%.
In turn, `O=c1c2[nH]nnc2nc2sc(COc3ccccc3)nn12` [Example 64] had an inhibition in vivo at 20 mg/kg in data set [2] of 33%.
For the compound `O=c1c2[nH]nnc2nc2sc(-c3cccs3)cn12` [Example 75], in data set [2], the inhibition in vivo at 20 mg/kg was determined as 32%.
As for `O=c1c2[nH]nnc2nc2sc(-c3ccc4c(c3)OCO4)nn12` [Example 12], the figures for the inhibition in vivo at 1 mg/kg in data set [1] and in data set [4] were 87% and 52%, respectively. Also, 20 mg/kg produced 36% inhibition in vivo in data set [2].
